Results reported in US12516056B2, “Compounds for inhibition of janus kinase 1” (MANKIND PHARMA LTD., priority 2019, dated 2026).
Where a name gives a salt, the structure may show the parent alone.

Columns and labels:
Recombinant JAK1 = target: T1, Recombinant JAK1 (Homo sapiens, UniProt P23458); assay: JAK biochemical assay (LANCE Ultra TR-FRET), JAK1; conditions: recombinant JAK1, TR-FRET; read-out: Biochemical Assay (μM) JAK1
T1 construct: purchased Carna Biosciences
Method in brief: (§1)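 Kinase reactions ran in buffer of 50 mM HEPES pH 7.5 with 1 mM EGTA, 10 mM MgCl2, 2 mM DTT and 0.01% Tween-20, using recombinant enzyme. Phosphorylated ULight substrate was detected by TR-FRET, and compound effect expressed as % inhibition against vehicle.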

Recombinant JAK3 = target: T2, Recombinant JAK3 (Homo sapiens, UniProt P52333); assay: JAK biochemical assay (LANCE Ultra TR-FRET), JAK3; conditions: recombinant JAK3, TR-FRET; read-out: Biochemical Assay (μM) JAK3
T2 construct: purchased Carna Biosciences
T2 sequence (P52333 1-1124): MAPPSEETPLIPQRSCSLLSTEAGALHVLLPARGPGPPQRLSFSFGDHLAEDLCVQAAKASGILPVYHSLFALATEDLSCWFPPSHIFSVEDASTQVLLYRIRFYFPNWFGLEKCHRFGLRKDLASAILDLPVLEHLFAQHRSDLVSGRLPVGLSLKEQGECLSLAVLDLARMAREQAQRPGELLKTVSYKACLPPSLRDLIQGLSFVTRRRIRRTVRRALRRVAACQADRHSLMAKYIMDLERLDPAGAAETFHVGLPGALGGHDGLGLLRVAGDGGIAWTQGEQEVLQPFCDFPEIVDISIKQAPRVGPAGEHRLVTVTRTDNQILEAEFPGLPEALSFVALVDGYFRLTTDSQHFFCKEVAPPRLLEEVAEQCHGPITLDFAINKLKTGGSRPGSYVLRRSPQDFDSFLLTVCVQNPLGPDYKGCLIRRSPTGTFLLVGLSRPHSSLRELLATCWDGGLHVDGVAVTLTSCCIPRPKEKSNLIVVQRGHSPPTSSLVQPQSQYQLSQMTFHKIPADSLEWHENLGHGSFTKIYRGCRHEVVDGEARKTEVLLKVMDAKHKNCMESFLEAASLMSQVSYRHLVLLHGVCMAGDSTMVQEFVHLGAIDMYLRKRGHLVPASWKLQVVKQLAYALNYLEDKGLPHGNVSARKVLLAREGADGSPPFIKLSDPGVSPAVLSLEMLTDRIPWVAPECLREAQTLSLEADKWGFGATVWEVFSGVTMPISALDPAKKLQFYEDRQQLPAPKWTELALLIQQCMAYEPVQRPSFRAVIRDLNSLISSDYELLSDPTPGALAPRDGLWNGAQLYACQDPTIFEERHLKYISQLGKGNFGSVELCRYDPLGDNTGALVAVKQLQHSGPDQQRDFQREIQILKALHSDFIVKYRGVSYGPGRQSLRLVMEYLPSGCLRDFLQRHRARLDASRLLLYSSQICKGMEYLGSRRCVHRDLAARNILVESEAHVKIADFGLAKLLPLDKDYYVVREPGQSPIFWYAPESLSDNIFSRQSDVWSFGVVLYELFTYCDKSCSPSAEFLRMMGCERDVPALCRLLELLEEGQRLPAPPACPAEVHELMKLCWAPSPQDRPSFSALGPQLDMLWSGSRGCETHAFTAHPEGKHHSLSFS
Method in brief: as §1

[1] = system: STAT3 phosphorylation by IL-6 in TF-1 cells; assay: JAK cellular assay: STAT3 phosphorylation by IL-6 in TF-1 cells (HTRF); format: cell-based; conditions: Homo sapiens, TF-1, TF-1 cells, IL-6 30 ng/ml, pSTAT3 HTRF; read-out: Cell Based Assay (μM) TF-1/IL-6/pSTAT3
Protocol: (§2) TF-1 cells were starved overnight in OptiMEM medium with 0.5% charcoal stripped fetal bovine serum, 0.1 mM nonessential amino acids (NEAA), 1 mM sodium pyruvate and without phenol red in CO2 incubator maintained at 37° c. Next day, cells were resuspended in RPMI without phenol red and dispensed into a 96 well plate at a final cell density of 1,20,000 cells per well. Compounds were diluted in DMSO and added to cells and incubated for 30 minutes in CO2 incubator maintained at 37° c. Final DMSO concentration in cell based assay was 0.2%. Human recombinant cytokines, IL-6 (30 ng/ml) and GMCSF (5 ng/ml) were added to the plate containing cells along with compound and incubated for 20 minutes with gentle tapping at every 5 minutes once. Compound mediated effects on STAT3 and STAT5 phosphorylation was measured in the lysates prepared by using CISBIO pSTAT3 and pSTAT5 detection kits by HTRF method. Background signal obtained from cells which were not activated with cytokines, was subtracted from vehicle controls and compound treated wells.

Recombinant JAK2 = target: T3, Recombinant JAK2 (Homo sapiens, UniProt O60674); assay: JAK biochemical assay (LANCE Ultra TR-FRET), JAK2; conditions: recombinant JAK2, TR-FRET; read-out: Biochemical Assay (μM) JAK2
T3 construct: purchased Carna Biosciences
Method in brief: as §1

Recombinant TYK2 = target: T4, Recombinant TYK2 (Homo sapiens, UniProt P29597); assay: JAK biochemical assay (LANCE Ultra TR-FRET), TYK2; conditions: recombinant TYK2, TR-FRET; read-out: Biochemical Assay (μM) TYK2
T4 construct: purchased Carna Biosciences
Method in brief: as §1

[2] = system: STAT5 phosphorylation by GMCSF in TF-1 cells; assay: JAK cellular assay: STAT5 phosphorylation by GMCSF in TF-1 cells (HTRF); format: cell-based; conditions: Homo sapiens; TF-1 cells, GMCSF 5 ng/ml, pSTAT5 HTRF; read-out: Cell Based Assay (μM) TF-1/GMCSF/pSTAT5
Protocol: as §2

T3 sequence (O60674 whole entry): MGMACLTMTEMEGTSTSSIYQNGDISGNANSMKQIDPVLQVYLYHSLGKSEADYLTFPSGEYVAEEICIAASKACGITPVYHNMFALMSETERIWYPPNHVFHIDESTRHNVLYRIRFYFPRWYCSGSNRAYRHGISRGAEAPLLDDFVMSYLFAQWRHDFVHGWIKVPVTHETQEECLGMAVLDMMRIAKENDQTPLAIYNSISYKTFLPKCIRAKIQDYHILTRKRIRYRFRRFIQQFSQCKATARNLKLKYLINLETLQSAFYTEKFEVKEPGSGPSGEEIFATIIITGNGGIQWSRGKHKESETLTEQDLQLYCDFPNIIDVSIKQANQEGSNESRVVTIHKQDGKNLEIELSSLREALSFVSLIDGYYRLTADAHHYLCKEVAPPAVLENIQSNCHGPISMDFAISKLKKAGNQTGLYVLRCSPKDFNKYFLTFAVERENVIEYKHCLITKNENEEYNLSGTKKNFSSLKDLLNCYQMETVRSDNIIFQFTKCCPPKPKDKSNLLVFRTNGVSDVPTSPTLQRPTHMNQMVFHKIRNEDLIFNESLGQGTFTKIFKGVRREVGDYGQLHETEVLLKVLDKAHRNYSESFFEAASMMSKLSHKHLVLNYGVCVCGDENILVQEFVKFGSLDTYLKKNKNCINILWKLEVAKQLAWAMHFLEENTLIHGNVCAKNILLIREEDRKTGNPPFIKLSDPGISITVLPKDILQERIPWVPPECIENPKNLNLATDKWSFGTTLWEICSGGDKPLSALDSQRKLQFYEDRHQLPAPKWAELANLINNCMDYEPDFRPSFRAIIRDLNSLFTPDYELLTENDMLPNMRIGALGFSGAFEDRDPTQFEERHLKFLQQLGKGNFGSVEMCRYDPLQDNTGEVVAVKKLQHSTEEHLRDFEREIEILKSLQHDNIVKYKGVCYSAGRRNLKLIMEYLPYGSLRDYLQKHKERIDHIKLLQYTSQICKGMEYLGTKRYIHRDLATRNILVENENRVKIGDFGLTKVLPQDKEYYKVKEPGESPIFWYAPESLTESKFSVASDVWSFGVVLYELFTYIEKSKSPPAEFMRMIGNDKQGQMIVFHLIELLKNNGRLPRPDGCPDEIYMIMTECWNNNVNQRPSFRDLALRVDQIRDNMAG
T1 sequence (P23458 whole entry): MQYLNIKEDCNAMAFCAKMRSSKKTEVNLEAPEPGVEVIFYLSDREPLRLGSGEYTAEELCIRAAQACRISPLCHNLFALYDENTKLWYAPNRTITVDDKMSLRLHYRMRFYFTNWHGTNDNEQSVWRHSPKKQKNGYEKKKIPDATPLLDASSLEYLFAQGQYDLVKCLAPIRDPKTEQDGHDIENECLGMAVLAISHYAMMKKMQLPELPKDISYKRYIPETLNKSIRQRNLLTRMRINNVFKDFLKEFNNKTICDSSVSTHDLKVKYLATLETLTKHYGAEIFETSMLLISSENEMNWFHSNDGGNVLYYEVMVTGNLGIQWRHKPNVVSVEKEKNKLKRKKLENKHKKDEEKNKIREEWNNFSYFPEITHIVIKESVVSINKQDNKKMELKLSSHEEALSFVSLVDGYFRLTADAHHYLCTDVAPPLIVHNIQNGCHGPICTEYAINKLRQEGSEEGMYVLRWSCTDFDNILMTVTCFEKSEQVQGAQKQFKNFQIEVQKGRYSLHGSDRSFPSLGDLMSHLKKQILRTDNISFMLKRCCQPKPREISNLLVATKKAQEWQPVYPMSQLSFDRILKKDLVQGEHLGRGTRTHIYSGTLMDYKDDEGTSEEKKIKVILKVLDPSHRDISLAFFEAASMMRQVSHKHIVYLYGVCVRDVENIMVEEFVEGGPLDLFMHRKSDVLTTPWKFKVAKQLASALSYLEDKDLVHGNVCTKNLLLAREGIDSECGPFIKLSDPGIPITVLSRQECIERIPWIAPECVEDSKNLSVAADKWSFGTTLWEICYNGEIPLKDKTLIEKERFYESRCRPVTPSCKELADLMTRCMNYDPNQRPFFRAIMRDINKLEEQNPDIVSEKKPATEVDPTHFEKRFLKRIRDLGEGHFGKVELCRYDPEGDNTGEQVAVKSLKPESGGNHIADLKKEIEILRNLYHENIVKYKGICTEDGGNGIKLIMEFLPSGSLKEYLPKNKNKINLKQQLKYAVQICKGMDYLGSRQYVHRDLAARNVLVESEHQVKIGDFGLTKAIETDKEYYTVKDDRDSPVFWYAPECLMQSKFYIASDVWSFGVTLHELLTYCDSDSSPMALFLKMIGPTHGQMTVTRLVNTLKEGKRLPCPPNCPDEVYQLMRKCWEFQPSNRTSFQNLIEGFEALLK
T4 sequence (P29597 whole entry): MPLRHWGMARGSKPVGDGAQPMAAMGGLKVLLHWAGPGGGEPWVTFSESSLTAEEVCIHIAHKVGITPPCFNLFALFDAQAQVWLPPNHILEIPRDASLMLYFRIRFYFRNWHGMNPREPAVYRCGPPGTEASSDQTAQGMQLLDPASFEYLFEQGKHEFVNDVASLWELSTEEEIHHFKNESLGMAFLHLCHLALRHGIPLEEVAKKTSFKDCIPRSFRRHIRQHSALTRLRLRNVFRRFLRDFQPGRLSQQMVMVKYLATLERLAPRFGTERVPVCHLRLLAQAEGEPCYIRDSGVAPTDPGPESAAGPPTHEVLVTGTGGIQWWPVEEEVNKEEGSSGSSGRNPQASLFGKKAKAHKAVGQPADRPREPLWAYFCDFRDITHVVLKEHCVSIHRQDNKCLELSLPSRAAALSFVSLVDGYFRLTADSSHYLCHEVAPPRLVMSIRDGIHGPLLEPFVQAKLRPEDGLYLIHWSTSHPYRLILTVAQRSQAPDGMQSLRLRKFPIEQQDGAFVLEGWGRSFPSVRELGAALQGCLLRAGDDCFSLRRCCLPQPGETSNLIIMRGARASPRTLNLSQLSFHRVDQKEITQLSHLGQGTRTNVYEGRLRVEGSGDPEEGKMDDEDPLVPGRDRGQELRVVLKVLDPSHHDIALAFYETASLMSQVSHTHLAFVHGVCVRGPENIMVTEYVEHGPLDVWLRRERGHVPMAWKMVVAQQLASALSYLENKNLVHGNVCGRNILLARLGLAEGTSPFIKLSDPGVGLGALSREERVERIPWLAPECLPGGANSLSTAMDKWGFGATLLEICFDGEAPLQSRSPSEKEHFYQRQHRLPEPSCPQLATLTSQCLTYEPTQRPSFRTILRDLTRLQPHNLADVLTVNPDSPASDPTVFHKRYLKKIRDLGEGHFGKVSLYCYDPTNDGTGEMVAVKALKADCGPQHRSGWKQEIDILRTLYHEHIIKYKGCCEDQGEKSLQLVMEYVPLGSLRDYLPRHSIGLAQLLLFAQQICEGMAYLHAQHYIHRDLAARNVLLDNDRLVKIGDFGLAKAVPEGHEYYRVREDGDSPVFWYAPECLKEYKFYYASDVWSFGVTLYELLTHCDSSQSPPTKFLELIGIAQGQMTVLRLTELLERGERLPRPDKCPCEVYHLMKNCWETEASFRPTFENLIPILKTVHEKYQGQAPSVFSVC

| IC50 (Recombinant JAK1) [µM] | IC50 (Recombinant JAK3) [µM] | IC50 [1] [µM] | IC50 (Recombinant JAK2) [µM] | IC50 (Recombinant TYK2) [µM] | IC50 [2] [µM] | Structure (SMILES) |
| --- | --- | --- | --- | --- | --- | --- |
| > 0.5 | > 1 | > 10 | > 0.5 | > 1 | – | CC1(C)CN(C(=O)Nc2ccc(-c3ccnc4[nH]c(=O)[nH]c34)cc2)C1 [Example 1007, N-(4-(2,3-dihydro-2-oxo-1H-imidazo[4,5-b]pyridin-7-yl)phenyl)-3,3-dimethylazetidine-1-carboxamide] |
| < 0.5 | < 0.5 | > 10 | < 0.5 | < 0.5 | – | O=C(NCC(F)(F)F)N1CCN(c2ccnc3[nH]c(-c4ccccc4)nc23)CC1 [Example 1022, N-(2,2,2-trifluoroethyl)-4-(2-phenyl-3H-imidazo[4,5-b]pyridin-7-yl)piperazine-1-carboxamide] |
| 0.039 | 0.43 | 10 | 0.066 | 0.093 | – | CC(NC(=O)n1cc(-c2ccnc3[nH]c(=O)[nH]c23)cn1)C(F)(F)F (stereo not shown) [Example 1030, N-(1,1,1-trifluoropropan-2-yl)-4-(2,3-dihydro-2-oxo-1H-imidazo[4,5-b]pyridin-7-yl)-1H-pyrazole-1-carboxamide] |
| < 0.5 | < 0.5 | > 10 | < 0.5 | < 0.5 | – | N#CC1(NC(=O)n2cc(-c3ccnc4[nH]c(=O)[nH]c34)cn2)CC1 [Example 1032, N-(1-cyanocyclopropyl)-4-(2,3-dihydro-2-oxo-1H-imidazo[4,5-b]pyridin-7-yl)-1H-pyrazole-1-carboxamide] |
| > 0.5 | > 1 | > 10 | > 1 | > 0.5 | – | CC1(C)CN(C(=O)n2cc(-c3ccnc4[nH]c(=O)[nH]c34)cn2)C1 [Example 1037, 7-(1-(3,3-dimethylazetidine-1-carbonyl)-1H-pyrazol-4-yl)-1,3-dihydro-2H-imidazo[4,5-b]pyridin-2-one] |
| > 0.5 | > 0.5 | 10 | > 0.5 | > 0.5 | – | N#CC(NC(=O)n1cc(-c2ccnc3[nH]c(=O)[nH]c23)cn1)C1CCCC1 (stereo not shown) [Example 1038, N-(cyano(cyclopentyl)methyl)-4-(2,3-dihydro-2-oxo-1H-imidazo[4,5-b]pyridin-7-yl)-1H-pyrazole-1-carboxamide] |
| > 1 | > 10 | > 10 | > 1 | > 1 | – | O=C(NC(C1CCCC1)C(F)(F)F)n1cc(-c2ccnc3[nH]c(=O)[nH]c23)cn1 (stereo not shown) [Example 1041, N-(1-cyclopentyl-2,2,2-trifluoroethyl)-4-(2,3-dihydro-2-oxo-1H-imidazo[4,5-b]pyridin-7-yl)-1H-pyrazole-1-carboxamide] |
| < 0.5 | < 0.5 | 10 | < 0.5 | < 0.5 | – | CC(C)C(C#N)NC(=O)n1cc(-c2ccnc3[nH]c(=O)[nH]c23)cn1 (stereo not shown) [Example 1044, N-(1-cyano-2-methylpropyl)-4-(2,3-dihydro-2-oxo-1H-imidazo[4,5-b]pyridin-7-yl)-1H-pyrazole-1-carboxamide] |
| < 0.5 | < 0.5 | > 10 | < 0.5 | < 0.5 | – | O=C(NCC(F)(F)F)n1cc(-c2ccnc3[nH]cnc23)cn1 [Example 1064, N-(2,2,2-trifluoroethyl)-4-(3H-imidazo[4,5-b]pyridin-7-yl)-1H-pyrazole-1-carboxamide] |
| > 0.5 | > 0.5 | > 10 | > 0.5 | > 0.5 | – | COCCC(C#N)NC(=O)n1cc(-c2ccnc3[nH]cnc23)cn1 (stereo not shown) [Example 1071, N-(1-cyano-3-methoxypropyl)-4-(3H-imidazo[4,5-b]pyridin-7-yl)-1H-pyrazole-1-carboxamide] |
| – | – | > 1 | – | – | > 10 | FC(F)(F)Cc1ccc(-n2cc(-c3ccnc4[nH]cnc34)cn2)nc1 [Example 1084, 7-(1-(5-(2,2,2-trifluoroethyl)pyridin-2-yl)-1H-pyrazol-4-yl)-3H-imidazo[4,5-b]pyridine] |
| – | – | > 1 | – | – | > 10 | N#CCc1cccc(-n2cc(-c3ccnc4[nH]cnc34)cn2)n1 [Example 1117, 2-(6-(4-(3H-imidazo[4,5-b]pyridin-7-yl)-1H-pyrazol-1-yl)pyridin-2-yl)acetonitrile] |
| > 0.5 | > 0.1 | 1 | > 0.5 | > 1 | – | O=S(=O)(CCC(c1ccc(-n2cc(-c3ccnc4[nH]cnc34)cn2)nc1)C(F)(F)F)C1CC1 (stereo not shown) [Example 1139, 7-(1-(5-(4-(cyclopropylsulfonyl)-1,1,1-trifluorobutan-2-yl)pyridin-2-yl)-1H-pyrazol-4-yl)-3H-imidazo[4,5-b]pyridine] |
| – | > 0.1 | > 1 | – | > 1 | > 10 | CN(C)C(=O)CC(c1ccc(-n2cc(-c3ccnc4[nH]cnc34)cn2)nc1)C(F)(F)F (stereo not shown) [Example 1144, 3-(6-(4-(3H-imidazo[4,5-b]pyridin-7-yl)-1H-pyrazol-1-yl)pyridin-3-yl)-4,4,4-trifluoro-N,N-dimethylbutanamide] |
| – | – | > 0.8 | – | – | > 1 | CN1CCN(CC(c2ccc(-n3cc(-c4ccnc5[nH]cnc45)cn3)nc2)C(F)(F)F)CC1 (stereo not shown) [Example 1222, 7-(1-(5-(1,1,1-trifluoro-3-(4-methylpiperazin-1-yl)propan-2-yl)pyridin-2-yl)-1H-pyrazol-4-yl)-3H-imidazo[4,5-b]pyridine] |
| – | 0.001 | > 0.75 | – | > 0.1 | > 1 | CC(N)CCC(c1ccc(-n2cc(-c3ccnc4[nH]cnc34)cn2)nc1)C(F)(F)F (stereo not shown) [Example 1224, 5-(6-(4-(3H-imidazo[4,5-b]pyridin-7-yl)-1H-pyrazol-1-yl)pyridin-3-yl)-6,6,6-trifluorohexan-2-amine, TFA salt] |
| < 0.1 | > 0.1 | > 1 | > 0.1 | > 1 | – | COC(c1ccc(-n2cc(-c3ccnc4[nH]cnc34)cn2)nc1)(C1CCN(C)CC1)C(F)(F)F (stereo not shown) [Example 1244, 7-(1-(5-(2,2,2-trifluoro-1-methoxy-1-(1-methylpiperidin-4-yl)ethyl)pyridin-2-yl)-1H-pyrazol-4-yl)-3H-imidazo[4,5-b]pyridine] |
| > 0.001 | > 0.003 | > 1 | > 0.03 | > 1 | – | N#CCC(=O)N1CC(C(O)(c2ccc(-n3cc(-c4ccnc5[nH]cnc45)cn3)nc2)C(F)(F)F)C1 (stereo not shown) [Example 1245, 3-(3-(1-(6-(4-(3H-imidazo[4,5-b]pyridin-7-yl)-1H-pyrazol-1-yl)pyridin-3-yl)-2,2,2-trifluoro-1-hydroxyethyl)azetidin-1-yl)-3-oxopropanenitrile] |
